The test system of data set [1] is Human Heme Oxygenase-1 (HMOX-1). The data set is described as follows: ELISA assay to measure human heme oxygenase-1 (HMOX-1) in HepG2 lysate. As to conditions: fold change of human HMOX1 protein levels relative to DMSO control, HepG2. The data set is classed as cell-based. In a few lines:
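HepG2 cells lysed in PBS/0.5% Triton X-100/1 mM EDTA with protease inhibitors; lysate diluted 1:20. Sandwich ELISA: anti-HO-1 capture (8 μg/ml), biotinylated detection antibody (200 ng/ml), streptavidin-HRP, chemiluminescent read. Quantified against 12-point HO-1 standard curve from 20 ng/ml; incubations at 20 °C.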
A general note: ELISA stands for enzyme-linked immunosorbent assay.

In another data set the test system is HMOX1 gene. The data set is described as follows: HMOX1 mRNA expression in HepG2 cells (Nanostring). The format is cell-based, human. As to conditions: 24 hours treatment. On the procedure: Example 147. HMOX1 Inducers of the Invention Strongly Increase In Vitro Expression of HMOX1
(§1) RNA Isolation and Quantification of Gene Expression
(§2) HepG2 cells were seeded at 250 k/well in 12-well tissue culture plates coated with collagen (collagen I, rat tail (thin plate coating); ENZO Life Sciences) for approximately 24 hours. The seeded cells were then treated with dose titration of the compound of Example 17 or dimethyl fumarate (DMF) (a Nrf2 activator; Fisher Scientific) via media change, with biological triplicates performed for each treatment. After approximately 24 hours of treatment, cells were visually inspected to confirm that no toxicity occurred with compound treatment. The treated cells were washed with PBS, aspirated, parafilmed and frozen at −80° C. prior to RNA isolation. RNA was isolated using Machery-Nagel isolation kit (NucleoSpin® RNA: catalog 740955.250) and then quantitated using ThermoFisher Nanodrop.
RNA was diluted for Nanostring gene expression analysis. […]
The relative mRNA levels of the HMOX1 gene in HepG2 cells treated with the compound of Example 17 or DMF were measured according to the methods described above. […]

Another data set deals with HbSS Townes sickle mice. The data set is described as follows: F-cells in HbSS Townes sickle mice. The format is in vivo, mouse. From the text: Blood smears were made using heparinized whole blood for F-cells staining. Stained F-cells and total red blood cells were counted on the blood smears in four fields; mean=77 red blood cells/field. F-cells are expressed as a percentage of total red blood cells. Values are means+SD. One-Way ANOVA with Dunnett's Multiple comparison to Vehicle **p≤0.01, ***p≤0.001, ****p≤0.0001
Dosing Scheme of HMOX Inducers to HbSS Townes Sickle Mice
HbSS Townes sickle mice were oral gavaged once daily with Vehicle or the compound of Example 17 listed below for 8 days. To minimize experimental inconsistency, fresh formulation was prepared every day and vortexed prior to drawing test article into syringe for each dosing, and dosing was performed by the same individual throughout the day. The last-day dose was administered by oral gavage 4 hours prior to hemin infusion described below. • 1. […]
F-cells were stained on whole blood smears by the Kleihauer-Betke method using a fetal cell stain kit (Simmler) according to the manufacturer's instructions. F-cells and total erythrocytes were counted in 4 separate microscopic fields at 100× magnification for each mouse. The F-cells were expressed as a percentage of total erythrocytes (i.e., red blood cells). […]

Another data set concerns FTH1. The data set is described as follows: FTH1 mRNA expression in HepG2 cells (Nanostring). The format is cell-based, human. As to conditions: 24 hours treatment. On the procedure:
as §1, §2
RNA was diluted for Nanostring gene expression analysis. The diluted RNA at an input of 200ng RNA was run on a Nanostring instrument, which was supported with nCounter® SPRINT Profiler System and nSolver4.0 Software, nCounter® SPRINT Cartridge, nCounter® SPRINT Reagent Pack, and nCounter© SPRINT Hybridization Buffer. Analysis was done manually using raw data obtained from nSolver4.0 Software. CLTC, POLR2A, RPL27 and TBP were used as reference genes for normalization. Data was graphed as fold change compared to DMSO treatment. […]

Entries after “also recorded” stand apart in the source; their conditions may differ.

For the compound `Cn1c(Nc2nc3ccccc3o2)nc2cc(C(=O)NCCOCCO)ccc21` [Example 17, 2-(benzo[d]oxazol-2-ylamino)-N-(2-(2-hydroxyethoxy)ethyl)-1-methyl-1H-benzo[d]imidazole-5-carboxamide], the “Maximum Fold induction” value in data set [1] is recorded as 11-40. Further, the “HMOX1 expression, 30 μM compound of Example 17 relative to 250 μM DMF” value in the data set on HMOX1 gene was 4 times. The “HMOX1 expression compared with DMF” value with HMOX1 gene (mRNA fold change vs DMSO) was “much more strongly than DMF”. Moreover, the “percent F-cells vs vehicle” value with HbSS Townes sickle mice (10, 25, 50 mg/kg PO once daily 8 days) is given as “significantly increased; also recorded: percentage of F-cells increase”. The “percent F-cells” value in the data set with HbSS Townes sickle mice (all doses tested (10, 25, 50 mg/kg PO, 8 days), % of total red blood cells) was 55-70%. Besides, in the data set with FTH1, the “FTH1 expression fold increase” value is listed as “comparable fold increases”.

Values taken from patent US20240051952A1, “HMOX1 INDUCERS” (Mitobridge Inc., priority 2019, published 2024).
